Experimental data from US9480252B2, “Herbicidal compositions” (Syngenta Crop Protection LLC, priority 2007, dated 2016).

What was measured:
[1] = system: Brachiaria plantaginea; assay: Glasshouse trial, control of Brachiaria, post-emergence test; assay type: in vivo; conditions: TXP (where applied) 200 g ai/ha, 15 DAA
Protocol: (§1) A glasshouse trial was carried out to test the activity of mesotrione or the compound of formula I (each at 3 different rates) in combination with trinexapac-ethyl at 200 gai/ha against Brachiaria plantaginea. Brachiaria seeds were sown in standard potting mix in 50 cm plastic troughs. The adjuvant system was X-77 at 0.1% v/v in deionised water. 500 liters of herbicide/adjuvant system was used per hectare. General weed control was evaluated at 15 days after application (DAA) for the post-emergence test and 20DAA for the pre-emergence test. It is noted that all herbicides were applied at reduced field rates because herbicide effects are magnified in a glasshouse environment. Rates were chosen to give a 50 to 70% level of control with herbicides applied alone as this allows for detection of any synergistic effect when tank mixtures are used.

[2] = system: Brachiaria plantaginea; assay: Glasshouse trial, control of Brachiaria, pre-emergence test; assay type: in vivo; conditions: TXP (where applied) 200 g ai/ha, 20 DAA
Protocol: as §1

## COCCOCc1nc(C(F)(F)F)ccc1C(=O)C1=C(O)C2CCC(C2)C1=O (stereo not drawn) [Formula I]
[1]; herbicide rate 30 g ai/ha
  % Control at different herbicide rates: 60%
[1]; herbicide rate 60 g ai/ha
  % Control at different herbicide rates: 70%
[1]; herbicide rate 125 g ai/ha
  % Control at different herbicide rates: 80%
[2]; herbicide rate 30 g ai/ha
  % Control at different herbicide rates: 30%
[2]; herbicide rate 60 g ai/ha
  % Control at different herbicide rates: 80%
[2]; herbicide rate 125 g ai/ha
  % Control at different herbicide rates: 90%

## CS(=O)(=O)c1ccc(C(=O)C2C(=O)CCCC2=O)c([N+](=O)[O-])c1 [Mesotrione, mesotrione]
[1]; herbicide rate 30 g ai/ha
  % Control at different herbicide rates: 30%
[1]; herbicide rate 60 g ai/ha
  % Control at different herbicide rates: 70%
[1]; herbicide rate 125 g ai/ha
  % Control at different herbicide rates: 70%
[2]; herbicide rate 30 g ai/ha
  % Control at different herbicide rates: 30%
[2]; herbicide rate 60 g ai/ha
  % Control at different herbicide rates: 50%
[2]; herbicide rate 125 g ai/ha
  % Control at different herbicide rates: 80%

## CCOC(=O)C1CC(=O)C(=C(O)C2CC2)C(=O)C1 (stereo not drawn) [TXP, trinexapac-ethyl]
[1]; herbicide rate 30 g ai/ha
  % Control at different herbicide rates: 0%
[1]; herbicide rate 60 g ai/ha
  % Control at different herbicide rates: 0%
[1]; herbicide rate 125 g ai/ha
  % Control at different herbicide rates: 0%
[2]; herbicide rate 30 g ai/ha
  % Control at different herbicide rates: 0%
[2]; herbicide rate 60 g ai/ha
  % Control at different herbicide rates: 0%
[2]; herbicide rate 125 g ai/ha
  % Control at different herbicide rates: 0%
